In patent US6399654B1, “Biflavanoids and derivatives thereof as antiviral agents” (priority 1995, dated 2002):
Read-outs that look alike come from different tables or passages of the source.

What was measured:
2.2.15 cells = test: HBV cytotoxicity assay, neutral red dye uptake in 2.2.15 cells; assay type: cell-based; details: Homo sapiens, read-out: IC50 (toxicity, neutral red dye uptake)
Procedure: The toxicity of the test compounds in cultures of 2.2.15 cells, grown to confluence in 96-well flat-bottomed tissue culture plates and treated with compounds as described above, were assayed at four concentrations each in triplicate cultures, in 3 to 10-fold steps. Untreated control cultures were maintained on each plate. On each plate, wells containing no cells were used to correct for light scattering.
Stock solutions of text drugs were prepared in DMSO.

Hepatitis B Virus (HBV) = test: Inhibition of HBV replication in 2.2.15 cells, extracellular (virion) HBV DNA; details: for EC50 / EC90: Hepatitis B virus; for SI (CC50/EC90), HBV Virion: selective index;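 for all read-outs here: extracellular virion HBV DNA in culture medium measured by slot blot hybridization with a 32P-labeled HBV probe, quantified against HBV DNA standards, after 9 days of daily dosing, compared with day 0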
[1] = 216 h, read-out: EC50 (50% effective dose), HBV Virion, 2.2.15 cells, extracellular (virion) HBV DNA, 9 days treatment
[2] = 216 h, read-out: EC90 (90% effective dose), HBV Virion, 2.2.15 cells, extracellular (virion) HBV DNA, 9 days treatment
[3] = read-out: EC50, concentration necessary to decrease HBV DNA levels by 50%, 2.2.15 cells, combinations: with respect to RF
[4] = read-out: EC90, concentration necessary to decrease HBV DNA levels by 90%, 2.2.15 cells, combinations: with respect to RF

Row | SMILES | IC50 (2.2.15 cells) [µM] | EC50 (Hepatitis B Virus (HBV); [1]) [µM] | EC90 (Hepatitis B Virus (HBV); [2]) [µM] | EC50 (Hepatitis B Virus (HBV); [3]) [µM] | EC90 (Hepatitis B Virus (HBV); [4]) [µM] | SI (CC50/EC90), HBV Virion (Hepatitis B Virus (HBV))
1 | Nc1ccn([C@@H]2CS[C@H](CO)O2)c(=O)n1 [Lamivudine (3TC), lamivudine, reference compound] | 1790 | 0.038 | 0.16 | 0.038 | 0.16 | 11200
2 | Nc1nc2c(ncn2CCC(CO)CO)c(=O)[nH]1 [Penciclovir, penciclovir, reference compound] | 433 | 0.19 | 0.92 | 0.19 | 0.92 | 471
